The source of these data is patent US20060073216A1, “Compositions and methods for control of bovine mastitis” (Solution Biosciences, Inc., priority 2002, published 2006).

Each structure is given as a SMILES string.

The series can be described thus: Solubility in water. In kind it is physicochemical. As to conditions: water at 75° F. (ca. 24° C.), expressed as Cl2.

For `CC1(C)C(=O)N(Br)C(=O)N1Br` [1,3-dibromo-5,5dimethylhydantoin, 1,3-dibromo-5,5-dimethylhydantoin], the solubility in water result was “about 405 ppm”.

As for `CC1(C)C(=O)N(Cl)C(=O)N1Br` [N,N′-bromochloro-5,5-dimethylhydantoin], the solubility in water entry is given as “about 890 ppm”.
